From PMC4392921 (Diabetes, 2014)

System: CD4+ T-cell clones specific for modified GAD65 epitopes
Test: T-cell clone proliferation assay, [3H]-thymidine incorporation
Type: cell-based, human
Conditions: GAD154E,164E-specific T cells (data not shown)

With “TTG-treated GAD: GAD65 protein unfolded by heating and treated with transglutaminase” the “proliferation in response to treated GAD protein” value was “not able to proliferate”.
